We go through 16 molecules from PubChem BioAssay (NCI).

Where “and” joins values, the source holds several entries; their conditions need not be identical. Equal entries are not always repeated.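 How tested: cells in 96-well plates exposed to compound for 48 hours at five concentrations. At the GI50, growth is halved. The concentration for full growth arrest is given as TGI.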

What all share (test): NCI anticancer screen, dose series, 48 h
In assay [1] the test system is OVCAR-4 ovarian.
In assay [2] the test system is CCRF-CEM leukemia.
In assay [3] the test system is PC-3 prostate.
Assay [4] relates to KM12 colon.
Assay [5] concerns TK-10 renal.
Assay [6] deals with SNB-19 CNS.
The test system of assay [7] is HOP-62 NSCLC.
Assay [8] deals with SK-MEL-2 melanoma.
Assay [9] relates to CAKI-1 renal.
In assay [10] the test system is M14 melanoma.

Take `O=C(O[C@H]1CN[C@H](C#Cc2cc3ncnc(Nc4ccc(OCc5cccc(F)c5)c(Cl)c4)c3s2)C1)N1CCOCC1`: the GI50 in [1] is 10.3 µM; in assay [2], 2.2 µM; in assay [3], 4.93 µM; in [4], 5.07 µM; in [5], 0.17 µM; in assay [6], above 25 µM. Also, the GI50 in [7] is above 13 µM; in assay [8] it was 7.4 µM; in [9] it was 3.17 µM; in assay [10] it was 12.6 µM. Moreover, the TGI in [1] is above 25 µM; in assay [2] it was above 22 µM; in assay [3], above 25 µM; in assay [4] it was 11.2 µM; in assay [5], 8.41 µM; in assay [6], above 25 µM. Moreover, the TGI in assay [7] was above 25 µM; in assay [8], 18.7 µM; in assay [9], above 25 µM; in assay [10] it was above 25 µM.

`O=C1CC2C(=O)C1C(C(=O)O)C2C(=O)O` (stereo unspecified): the TGI in assay [1], in [2], in assay [3], in assay [4], in assay [5] and in assay [6] was above 100 µM each time. Besides, the TGI in assay [7], in assay [8], in [9] and in assay [10] was above 100 µM each time.

Take `CC1OC(O[C@H]2/C=C/C=C/C=C/C=C/C=C/C=C/C=C/[C@H](C)[C@@H](O)[C@@H](C)[C@H](C)OC(=O)C[C@H](O)C[C@H](O)CC[C@@H](O)[C@H](O)C[C@H](O)C[C@]3(O)C[C@H](O)[C@@H](C(=O)O)[C@H](C2)O3)C(O)C(N)C1O` (stereo partly specified): the TGI in assay [1] is 51.2 µM; in assay [2] it was 48.6 µM; in assay [3], 31.8 µM; in assay [4] it was 42.6 µM; in assay [5], 46.3 µM; in assay [6], 50.2 µM. Moreover, the TGI was determined as 42.2 µM in assay [7], 59.3 µM in assay [8], 41.7 µM in [9] and 29.2 µM in assay [10]. The GI50 in [2] was 9.99 µM; in assay [5], 27.2 µM; in assay [6] it was 37.8 µM; in [7] it was 20.5 µM; in assay [9], 12.7 µM; in assay [10] it was 11 µM.

`CN(C)c1ccc2cc(-c3cc4c(oc3=O)-c3ccccc3OC4O)c(=O)oc2c1` (stereo unspecified): the GI50 is 0.55 µM in assay [1]; 2.54 µM in assay [2]; 3.85 µM in assay [3]; 6.05 µM in assay [4]; 6.63 µM in [5]; 3.56 µM in assay [6]. Further, the GI50 in assay [7] was 3.88 µM; in assay [8], 3.03 µM; in [9] it was 7.07 µM; in assay [10] it was 4.73 µM. For the same molecule, the TGI is above 25 µM in assay [1]; 7.95 µM in assay [2]; 15.1 µM in [3]; 16.2 µM in assay [4]; 19.8 µM in [5]; 12.2 µM in assay [6]. In addition, the TGI was 11.6 µM in assay [7], 7.53 µM in assay [8], above 25 µM in assay [9] and 9.31 µM in assay [10].

For the molecule `Cc1cccc2c1NC(=O)[C@@]21[C@H](C(=O)c2ccccc2)[C@]2(C(=O)Nc3ccccc32)[C@H]2CCCN21`, the GI50 is 16.4 µM in [1]; 59.6 µM in [2]; 36.4 µM in assay [3]; 58.9 µM in assay [4]; 36.8 µM in assay [5]; 19.2 µM in assay [6]. Moreover, the GI50 in [7] was 26.7 µM; in [8], 50.5 µM; in [9], 22.4 µM; in assay [10], 43.3 µM. Further, the TGI in [1] was 40.7 µM; in [2], above 100 µM; in [3] it was above 100 µM; in assay [4], above 100 µM; in assay [5], above 100 µM; in assay [6], above 100 µM. Also, the TGI in [7], in assay [8], in assay [9] and in [10] was above 100 µM each time.

`COc1ccc(-c2nc(N)c3ncn(C4OC(CO)C(O)C4O)c3n2)cc1` (stereo unspecified): the TGI in assay [1], in assay [2], in [3], in [4], in assay [5] and in assay [6] was above 100 µM in each case. Moreover, the TGI in assay [7], in assay [8], in [9] and in assay [10] was above 100 µM throughout.

With `COC1CC2C=CC3C4OC2(/C(C)=C/C(C)C(C(C)O)OC1=O)C3C(O)C(C)C4OC(=O)c1ccc[nH]1` (stereo unspecified), the TGI in assay [1], in [2], in [3], in assay [4], in assay [5] and in assay [6] was above 100 µM each time. The TGI in [7], in assay [8], in assay [9] and in assay [10] was above 100 µM in each case.

On to `O=C1/C=C/[C@@H](O)[C@@H]2C[C@@H](O)C[C@H]2/C=C/CCC[C@H](CO)O1`, for which the GI50 in assay [1] is 2.07 µM; in [2], 4.19 µM; in assay [3], 2.5 µM; in assay [4], 2.42 µM; in assay [5], 3.06 µM; in assay [6], 3.09 µM. Moreover, the GI50 in assay [7] was 3.66 µM; in assay [8], 2.39 µM; in assay [9] it was 3.74 µM; in assay [10] it was 2.42 µM. Besides, the TGI was above 100 µM in [1]; above 100 µM in assay [2]; above 100 µM in [3]; above 100 µM in [4]; 10.9 µM in assay [5]; above 100 µM in assay [6]. For the same molecule, the TGI in assay [7] is above 100 µM; in assay [8], 5.95 µM; in assay [9], above 100 µM; in [10] it was above 100 µM.

With `N/C(=N\c1nc2ccccc2s1)NC(=O)Nc1ccccc1Cl`, the GI50 is 2.71 µM in assay [1]; 0.11 µM in [2]; 0.13 µM in assay [3]; 0.127 µM in assay [4]; 4.11 µM in assay [5]; 0.201 µM in [6]. Moreover, the GI50 in assay [7] is 0.19 µM; in [8], 3.24 µM; in assay [9] it was 0.0624 µM; in assay [10], 0.0509 µM. The TGI in assay [1] was 8.53 µM; in assay [2], above 42.8 µM; in [3], above 71.9 µM; in assay [4], 12 µM; in assay [5], 18.7 µM; in assay [6], above 69.5 µM. Moreover, the TGI in [7] is 26.7 µM; in assay [8], above 61.3 µM; in assay [9], 15.5 µM; in assay [10], 2.14 µM.

As to `N=C1C(c2nc3ccccc3s2)=C(O)CN1c1ccc(Cl)cc1Cl`, the GI50 in assay [1] was 18.3 µM; in [2] it was 19.2 µM; in assay [3] it was 11.5 µM; in assay [4] it was 11.7 µM; in assay [5], 14.4 µM; in assay [6], 26.3 µM. Further, the GI50 in assay [7] is 13.9 µM; in [8], 27.6 µM; in assay [9], 3.27 µM; in assay [10], 23.7 µM. Moreover, the TGI was 70.2 µM in assay [1]; above 100 µM in [2]; 29 µM in assay [3]; 65.7 µM in assay [4]; 42.8 µM in assay [5]; 80.9 µM in assay [6]. The TGI in assay [7] is 38 µM; in assay [8], 96.6 µM; in [9] it was 20.3 µM; in assay [10], above 100 µM.

As to `COc1cc2c(Nc3ccc(Br)cc3F)ncnc2cc1OCC1CCN(C)CC1`, the GI50 in assay [1] was 2.92 µM and 5.59 µM; in assay [2] it was 4.71 µM and > 10 µM; in [3] it was 4.06 µM and 3.9 µM; in [4], 8.94 µM and > 10 µM; in assay [5], 0.317 µM and 0.54 µM; in [6] it was 4.7 µM and > 10 µM. For the same molecule, the GI50 in assay [7] was 3.24 µM and 5.81 µM; in assay [8], 5.33 µM and > 10 µM; in assay [9] it was 0.729 µM and 1.28 µM; in assay [10], 1.91 µM and 1.74 µM. Further, the TGI is 14.8 µM and > 10 µM in [1]; 17.5 µM and > 10 µM in assay [2]; 18.6 µM and > 10 µM in assay [3]; 21.4 µM and > 10 µM in [4]; 6.58 µM and > 10 µM in assay [5]; 18.3 µM and > 10 µM in assay [6]. Besides, the TGI is 14.6 µM and > 10 µM in assay [7]; 10.9 µM and > 10 µM in assay [8]; 5.24 µM and > 10 µM in [9]; 3.62 µM and 3.66 µM in [10].

With `Cc1ccc(C(=O)CCC2C(=O)CC(C)(C)CC2=O)cc1`, the TGI in [1] was above 100 µM; in [2] it was 55.1 µM; in [3], above 100 µM; in assay [4] it was above 100 µM; in [5], above 100 µM; in [6], above 100 µM. The TGI in [7] is above 100 µM; in [8], above 100 µM; in assay [9], 32 µM; in assay [10], above 100 µM.

Take `CNC(=O)c1cncc(/C=C/c2c(C)cccc2C)c1`: the GI50 is above 25 µM in assay [1]; above 25 µM in assay [2]; above 25 µM in [3]; above 25 µM in assay [4]; above 20.9 µM in assay [5]; above 25 µM in [6]. In addition, the GI50 in assay [7] is above 25 µM; in [8] it was above 25 µM; in assay [9], 10.2 µM; in assay [10], above 25 µM. For the same molecule, the TGI in assay [1], in [2], in assay [3], in [4], in assay [5] and in assay [6] was above 25 µM throughout. Also, the TGI in assay [7], in [8], in assay [9] and in assay [10] was above 25 µM throughout.

Turning to `NCC1OC(n2cnc3c(=O)[nH]c(N)nc32)C(O)C1O` (stereo unspecified), the TGI in assay [1], in assay [2], in assay [3], in [4], in assay [5] and in [6] was above 100 µM each time. Besides, the TGI in assay [7], in assay [8], in assay [9] and in assay [10] was above 100 µM in each case.

In the case of `COc1c(B(O)O)cccc1-c1nc2c(F)cc3[nH]ncc3c2c2c1CCCC2`, the GI50 in assay [1] was 5.49 µM; in assay [2], 0.633 µM; in [3], 1.73 µM; in assay [4], 1.41 µM; in assay [5], 0.0391 µM; in assay [6], 1.66 µM. Further, the GI50 in assay [7] is 0.133 µM; in [8], 2.42 µM; in [9], 0.333 µM; in assay [10] it was 3.8 µM. In addition, the TGI was 58.3 µM in [1]; 6.92 µM in [2]; above 29 µM in assay [3]; 11.7 µM in assay [4]; above 38.4 µM in assay [5]; 37.9 µM in [6]. For the same molecule, the TGI in assay [7] worked out at 27.1 µM; in [8], 6.8 µM; in [9], 3.26 µM; in assay [10], 15.5 µM.

Consider `O=S(=O)(NCCCNc1cc(-c2cn(-c3ccccc3)nc2-c2cccc(O)c2)ccn1)c1cccc2ccccc12`, for which the GI50 is 3.06 µM in [1]; 3.12 µM in assay [2]; 2.87 µM in assay [3]; 2.49 µM in assay [4]; 6.11 µM in assay [5]; 5.1 µM in assay [6]. The GI50 in assay [7] was 2.45 µM; in assay [8], 2.45 µM; in [9] it was 3.37 µM; in assay [10], 2.14 µM. In addition, the TGI in [1] is above 100 µM; in assay [2] it was above 100 µM; in assay [3] it was 44.9 µM; in [4] it was 7.57 µM; in assay [5], 44.9 µM; in assay [6] it was above 100 µM. The TGI in assay [7] is 12.9 µM; in assay [8], 6.25 µM; in assay [9] it was above 100 µM; in assay [10] it was 5.3 µM.
